Measured values: ChEMBL document CHEMBL3600301, “CholesteroNitrones for Stroke” (J Med Chem, 2015)
The source made the active and inactive calls. The rule behind the calls is not given here.

Key:
[1] = test system: Rattus norvegicus; experiment: Neuroprotection in Wistar rat model of ischemia assessed as reduction in neurological deficit score at 0.005 mg/kg measured after 5 days of reperfusion (reference value: 2.5 +/- 0.34 No unit); format: functional
[2] = Protection against oxygen-glucose deprivation-induced cytotoxicity in Sprague-Dawley rat cerebral cortex primary neuronal cell cultures assessed as increase in cell viability at 1 uM added at onset of recovery period and measured during recovery for 5 days by MTT assay (reference value: 0.842 AU); format: functional, Primary neuron
[3] = test system: Primary neuron; experiment: Protection against oxygen-glucose deprivation-induced cytotoxicity in Sprague-Dawley rat cerebral cortex primary neuronal cell cultures assessed as increase in cell viability at 1 and 5 uM added after 48 hrs post recovery period and measured during recovery for 5 days by MTT assay; format: functional, tissue-based
[4] = test system: Primary neuron; experiment: Protection against oxygen-glucose deprivation-induced cytotoxicity in Sprague-Dawley rat cerebral cortex primary neuronal cell cultures assessed as increase in cell viability at 250 uM added at onset of recovery period by MTT assay; format: functional, tissue-based
[5] = test system: Rattus norvegicus; experiment: Neuroprotection in Wistar rat model of ischemia assessed as reduction ischemia-induced neuronal death in hippocampal CA1 regions at 0.05 mg/kg, ip dosed at onset of reperfusion period and measured on 5 days of reperfusion by fluoro jade B staining based fluorescence microscopy; format: functional; parameters: scale not given: the % may be the effect or the level left
[6] = test system: Primary neuron; experiment: Reduction of oxygen-glucose deprivation-induced ROS generation in Sprague-Dawley rat cerebral cortex primary neuronal cell cultures at 1 to 10 uM measured at 2 hrs of recovery after oxygen-glucose deprivation by fluorescence assay; format: functional, tissue-based
[7] = test system: Rattus norvegicus; experiment: Neuroprotection in Wistar rat model of ischemia assessed as reduction ischemia-induced neuronal apoptosis in cortical regions at 0.05 and 0.1 mg/kg, ip dosed at onset of reperfusion period and measured on 5 days of reperfusion by TUNEL assay; format: functional; parameters: scale not given: the % may be the effect or the level left
[8] = Protection against oxygen-glucose deprivation-induced cytotoxicity in Sprague-Dawley rat cerebral cortex primary neuronal cell cultures assessed as increase in cell viability at 5 uM added at onset of recovery period and measured during recovery for 5 days by MTT assay (reference value: 0.842 AU); format: functional, Primary neuron
[9] = Toxicity in Sprague-Dawley rat cerebral cortex primary neuronal cell cultures under oxygen-glucose deprivation conditions assessed as […] in cell viability at >10 uM added at onset of recovery period by MTT assay; format: tissue-based; settings: primary neuron
[10] = test system: Primary neuron; experiment: Reduction of oxygen-glucose deprivation-induced lipid peroxidation in Sprague-Dawley rat cerebral cortex primary neuronal cell cultures assessed as reduction in MDA level at 5 uM measured at 4 hrs of recovery after oxygen-glucose deprivation by TBARS based colorimetric and fluorometric assay; format: functional, tissue-based
[11] = test system: Rattus norvegicus; experiment: Neuroprotection in Wistar rat model of ischemia assessed as reduction ischemia-induced neuronal death in hippocampal CA1 regions at 0.1 mg/kg, ip dosed at onset of reperfusion period and measured on 5 days of reperfusion by fluoro jade B staining based fluorescence microscopy; format: functional; parameters: scale not given: the % may be the effect or the level left
[12] = test system: Primary neuron; experiment: Protection against oxygen-glucose deprivation-induced cytotoxicity in Sprague-Dawley rat cerebral cortex primary neuronal cell cultures assessed as increase in cell viability at 1 and 5 uM added at onset of recovery period and measured during recovery for 5 days by MTT assay; format: functional, tissue-based
[13] = test system: Rattus norvegicus; experiment: Neuroprotection in Wistar rat model of ischemia assessed as reduction ischemia-induced neuronal apoptosis in hippocampal CA1 regions at 0.05 and 0.1 mg/kg, ip dosed at onset of reperfusion period and measured on 5 days of reperfusion by TUNEL assay; format: functional; parameters: scale not given: the % may be the effect or the level left
[14] = test system: Primary neuron; experiment: Protection against oxygen-glucose deprivation-induced cytotoxicity in Sprague-Dawley rat cerebral cortex primary neuronal cell cultures assessed as increase in cell viability at 1 uM added at onset of recovery period by MTT assay; format: functional, tissue-based
[15] = test system: Rattus norvegicus; experiment: Neuroprotection in Wistar rat model of ischemia assessed as reduction ischemia-induced neuronal death in cortical regions at 0.05 mg/kg, ip dosed at onset of reperfusion period and measured on 5 days of reperfusion by fluoro jade B staining based fluorescence microscopy; format: functional; parameters: scale not given: the % may be the effect or the level left
[16] = test system: Rattus norvegicus; experiment: Neuroprotection in Wistar rat model of ischemia assessed as reduction in neurological deficit score at 0.1 mg/kg measured after 5 days of reperfusion (reference value: 2.5 +/- 0.34 No unit); format: functional
[17] = test system: Rattus norvegicus; experiment: Neuroprotection in Wistar rat model of ischemia assessed as reduction ischemia-induced neuronal death in cortical regions at 0.1 mg/kg, ip dosed at onset of reperfusion period and measured on 5 days of reperfusion by fluoro jade B staining based fluorescence microscopy; format: functional; parameters: scale not given: the % may be the effect or the level left
[18] = test system: Primary neuron; experiment: Protection against oxygen-glucose deprivation-induced cytotoxicity in Sprague-Dawley rat cerebral cortex primary neuronal cell cultures assessed as increase in cell viability at 5 uM added at onset of recovery period by MTT assay; format: functional, tissue-based
[19] = test system: Primary neuron; experiment: Protection against oxygen-glucose deprivation-induced cytotoxicity in Sprague-Dawley rat cerebral cortex primary neuronal cell cultures assessed as increase in cell viability at 0.1 to 250 uM added at onset of recovery period by MTT assay; format: functional, tissue-based
[20] = test system: Rattus norvegicus; experiment: Neuroprotection in Wistar rat model of ischemia assessed as reduction ischemia-induced neuronal apoptosis in hippocampal CA1 regions at 40 mg/kg, ip dosed at onset of reperfusion period and measured on 5 days of reperfusion by TUNEL assay; format: functional; parameters: scale not given: the % may be the effect or the level left
[21] = test system: Rattus norvegicus; experiment: Neuroprotection in Wistar rat model of ischemia assessed as reduction in neurological deficit score at 40 mg/kg measured after 5 days of reperfusion; format: functional, organism-based
[22] = test system: Rattus norvegicus; experiment: Neuroprotection in Wistar rat model of ischemia assessed as reduction ischemia-induced neuronal apoptosis in cortical regions at 40 mg/kg, ip dosed at onset of reperfusion period and measured on 5 days of reperfusion by TUNEL assay; format: functional; parameters: scale not given: the % may be the effect or the level left
[23] = test system: Primary neuron; experiment: Protection against oxygen-glucose deprivation-induced cytotoxicity in Sprague-Dawley rat cerebral cortex primary neuronal cell cultures assessed as increase in cell viability at 250 uM added after 48 hrs post recovery period and measured during recovery for 5 days by MTT assay; format: functional, tissue-based
[24] = test system: Primary neuron; experiment: Protection against oxygen-glucose deprivation-induced cytotoxicity in Sprague-Dawley rat cerebral cortex primary neuronal cell cultures assessed as increase in cell viability at 250 uM added at onset of recovery period and measured during recovery for 5 days by MTT assay; format: functional, tissue-based
[25] = test system: Rattus norvegicus; experiment: Neuroprotection in Wistar rat model of ischemia assessed as reduction ischemia-induced neuronal death in cortical regions at 40 mg/kg, ip dosed at onset of reperfusion period and measured on 5 days of reperfusion by fluoro jade B staining based fluorescence microscopy; format: functional; parameters: scale not given: the % may be the effect or the level left
[26] = test system: Rattus norvegicus; experiment: Neuroprotection in Wistar rat model of ischemia assessed as reduction ischemia-induced neuronal death in hippocampal CA1 regions at 40 mg/kg, ip dosed at onset of reperfusion period and measured on 5 days of reperfusion by fluoro jade B staining based fluorescence microscopy; format: functional; parameters: scale not given: the % may be the effect or the level left
[27] = Toxicity in Sprague-Dawley rat cerebral cortex primary neuronal cell cultures under oxygen-glucose deprivation conditions assessed as […] in cell viability at >50 uM added at onset of recovery period by MTT assay; format: tissue-based; settings: primary neuron

With CC(C)CCC[C@@H](C)[C@H]1CC[C@H]2[C@@H]3CCC4=C/C(=[N+](\C)[O-])CC[C@]4(C)[C@H]3CC[C@]12C the Activity [1] was 0.5, the Activity [2] was 0.931 a.u and the Activity [3] was “Active”. The Activity [4] was “Active”, the Activity [5] was 17% and the Activity [6] was “Active”. The Activity [7] was 89%, the Activity [8] was 0.995 a.u and the Activity [9] was “Toxic”. The Activity [10] was “Active”, the Activity [11] was 27% and the Activity [12] was “Active”. For the same compound, the Activity [13] was 30%, the Activity [14] was “Active” and the Activity [15] was 66%. The Activity [16] was 1.25, the Activity [17] was 83% and the Activity [18] was “Active”.
In the case of CC(C)CCC[C@@H](C)[C@H]1CC[C@H]2[C@@H]3CC=C4CC(=O)CC[C@]4(C)[C@H]3CC[C@]12C, the Activity [19] is reported as “inactive”.
With CC(C)(C)/[N+]([O-])=C/c1ccc(S(=O)(=O)[O-])cc1S(=O)(=O)[O-].[Na+].[Na+] the Activity [4] was “Active”, the Activity [20] was 21% and the Activity [21] was “inactive”. The Activity [22] was 55%, the Activity [23] was “inactive” and the Activity [24] was “inactive”. For the same compound, the Activity [25] was 66% and the Activity [26] was 17%.
With CC(C)CCC[C@@H](C)[C@H]1CC[C@H]2[C@@H]3CCC4=C/C(=[N+](/C)[O-])CC[C@]4(C)[C@H]3CC[C@]12C the Activity [2] was 0.888 a.u, the Activity [3] was “Active” and the Activity [8] was 0.998 a.u. The Activity [12] was “Active”, the Activity [14] was “inactive” and the Activity [18] was “inactive”.
In the case of CC(C)CCC[C@@H](C)[C@H]1CC[C@H]2[C@@H]3CCC4=CC(=O)CC[C@]4(C)[C@H]3CC[C@]12C [4-CHOLESTEN 3-ONE], the Activity [19] is reported as “inactive” and the Activity [27] is reported as “Toxic”.
